Each structure is given as a SMILES string.

This test concerns the target PAS domain-containing serine/threonine-protein kinase (Homo sapiens, UniProt Q96RG2). Briefly: Inhibition of purified human PASK kinase domain expressed in insect cells incubated for 10 mins using MBP protein by kinase-Glo luminescent kinase assay.

Sequence of PAS domain-containing serine/threonine-protein kinase (Q96RG2 whole entry, the tested form may be a part): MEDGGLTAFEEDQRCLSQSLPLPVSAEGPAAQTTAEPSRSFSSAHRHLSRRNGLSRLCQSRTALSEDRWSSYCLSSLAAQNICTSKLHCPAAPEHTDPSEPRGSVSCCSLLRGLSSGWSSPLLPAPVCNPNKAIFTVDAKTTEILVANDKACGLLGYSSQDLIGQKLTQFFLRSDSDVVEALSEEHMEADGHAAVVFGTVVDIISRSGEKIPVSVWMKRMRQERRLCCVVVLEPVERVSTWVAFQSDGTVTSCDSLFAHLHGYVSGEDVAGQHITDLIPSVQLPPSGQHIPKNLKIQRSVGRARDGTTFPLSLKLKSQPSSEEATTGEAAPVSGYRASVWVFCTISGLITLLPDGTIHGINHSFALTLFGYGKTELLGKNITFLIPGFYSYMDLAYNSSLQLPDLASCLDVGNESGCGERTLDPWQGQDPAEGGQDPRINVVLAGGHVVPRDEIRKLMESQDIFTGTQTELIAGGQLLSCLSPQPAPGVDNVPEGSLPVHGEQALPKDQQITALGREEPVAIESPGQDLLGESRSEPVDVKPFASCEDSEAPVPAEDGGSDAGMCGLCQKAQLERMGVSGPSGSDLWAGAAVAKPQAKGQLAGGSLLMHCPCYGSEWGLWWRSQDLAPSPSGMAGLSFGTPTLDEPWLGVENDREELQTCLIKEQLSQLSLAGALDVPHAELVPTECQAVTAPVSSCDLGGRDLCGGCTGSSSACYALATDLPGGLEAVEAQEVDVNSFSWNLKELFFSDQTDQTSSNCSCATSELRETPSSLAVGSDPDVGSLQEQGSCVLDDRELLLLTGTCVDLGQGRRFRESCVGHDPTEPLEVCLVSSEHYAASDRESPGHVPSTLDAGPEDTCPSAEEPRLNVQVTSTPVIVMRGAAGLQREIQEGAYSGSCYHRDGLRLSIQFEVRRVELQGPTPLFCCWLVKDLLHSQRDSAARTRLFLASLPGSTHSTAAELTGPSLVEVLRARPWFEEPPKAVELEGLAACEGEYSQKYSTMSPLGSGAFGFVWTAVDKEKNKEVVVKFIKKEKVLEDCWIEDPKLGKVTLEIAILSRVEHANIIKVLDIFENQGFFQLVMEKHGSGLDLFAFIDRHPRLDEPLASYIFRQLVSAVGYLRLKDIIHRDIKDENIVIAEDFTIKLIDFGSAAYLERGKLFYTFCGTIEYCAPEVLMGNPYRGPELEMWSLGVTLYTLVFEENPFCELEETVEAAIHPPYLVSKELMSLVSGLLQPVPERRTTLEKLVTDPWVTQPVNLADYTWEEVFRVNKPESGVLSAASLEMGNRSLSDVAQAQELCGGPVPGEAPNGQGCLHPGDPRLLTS

As to `O=c1cc(-c2ccc3c(c2)OCO3)[nH]c2c(-c3ccccn3)cnn12`, the IC50 is not above 10 µM.
